The values below come from the NIST ThermoML archive (doi:10.1021/je049551l).

± gives the expanded uncertainty stated by the source.

The conditions of the series: Crystal; DTA.
With `NC(=O)/N=N/C(N)=O` [azodicarbonamide], the Normal melting temperature is 224.50 ± 1.1 °C.

For the compound `CC(=O)O[C@H]1C(=O)[C@@]2(C)[C@H]([C@H](OC(=O)c3ccccc3)[C@]3(O)C[C@H](OC(=O)[C@H](O)[C@@H](NC(=O)c4ccccc4)c4ccccc4)C(C)=C1C3(C)C)[C@]1(OC(C)=O)CO[C@@H]1C[C@@H]2O` [paclitaxel], the Normal melting temperature worked out at 215.00 ± 4 °C. For `CC(=O)Nc1ccc(O)cc1` [N-acetyl-p-aminophenol] the value was 170.00 ± 4 °C. Then `O=c1oc(-c2ccccc2)nc2ccccc12` [2-phenyl-4H-3,1-benzoxazin-4-one], with 124.00 ± 2 °C. For `O=c1[nH]cc(F)c(=O)[nH]1` [5-fluoro-2,4(1H,3H)-pyrimidinedione] the value was 284.00 ± 4 °C; for `CC(C)Cc1ccc(C(C)C(=O)O)cc1` (stereo not drawn) [ibuprofen], 74.50 ± 3 °C; for `Cc1cn([C@H]2C[C@H](O)[C@@H](CO)O2)c(=O)[nH]c1=O` [thymidine], 187.00 ± 2 °C.

Take `COc1ccc2cc([C@H](C)C(=O)O)ccc2c1` [(S)-(+)-naproxen]: the Normal melting temperature was 157.50 ± 1.1 °C.
